Data published in patent EP4725946A1, “IRAK4 DEGRADATION AGENT AND USE THEREOF” (Guangzhou Unirise Pharmaceutical Co., Ltd., priority 2023, dated 2024).
Where two headings read alike, the source gives them in different places.

Experiments:
IRAK4 protein = molecular target: T1, IRAK4 protein (Homo sapiens, UniProt Q9NWZ3); experiment: IRAK4 Degradation Assay in THP-1 Cells (Western Blot); assay type: cell-based; design: endogenous in cells; host or cells: THP-1 cells; details: 24 hours, 0.0128 to 1000 nM, IRAK4 protein level by Western Blot; for Dmax: read-out: Dmax%; for DC50: read-out: DC50
T1 sequence (Q9NWZ3 1-460): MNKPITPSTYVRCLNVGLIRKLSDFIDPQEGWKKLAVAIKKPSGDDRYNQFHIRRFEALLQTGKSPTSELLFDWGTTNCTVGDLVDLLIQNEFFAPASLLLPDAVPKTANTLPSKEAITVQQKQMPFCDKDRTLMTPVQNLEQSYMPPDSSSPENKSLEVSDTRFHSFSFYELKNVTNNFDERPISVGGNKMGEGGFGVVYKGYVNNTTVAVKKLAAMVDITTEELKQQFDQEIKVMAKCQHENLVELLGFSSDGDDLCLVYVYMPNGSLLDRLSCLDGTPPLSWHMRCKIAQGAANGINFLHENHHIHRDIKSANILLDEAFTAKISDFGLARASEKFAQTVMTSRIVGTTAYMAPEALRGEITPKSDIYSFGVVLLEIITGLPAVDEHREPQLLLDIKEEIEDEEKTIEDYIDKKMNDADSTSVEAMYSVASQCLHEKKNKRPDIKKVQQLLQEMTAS
Procedure: In a 6-well cell culture plate, an appropriate number of THP-1 cells were seeded. The plate was placed in a 5% CO2 incubator at 37°C for overnight culture. Then, the test compound's dimethyl sulfoxide solution was added, with the final concentration ranging from 0.0128 to 1000 nM. After continuous culture for 24 hours, the culture medium was removed, and the cells were collected in a 1.5 mL centrifuge tube. After adding lysis buffer and grinding thoroughly, the mixture was placed on ice for 30 minutes. It was then centrifuged at 15,000 xg and 4°C for 20 minutes. The supernatant was taken, and the level of IRAK4 protein was detected by Western Blot.

[1] = Pharmacokinetic study in mice; assay type: in vivo; details: male mice, plasma
Procedure: Six male mice weighing 20-30 g were randomly divided into two groups. One group received an intravenous (IV) administration of the test compound at a dose of 2 mg/kg, while the other group received an oral (gavage) administration at a dose of 10 mg/kg. Blood samples were collected at 0.083, 0.25, 0.5, 1, 2, 4, 6, 8, and 24 hours post-administration. Plasma samples were processed and analyzed using LC/MS/MS in MRM)mode. A validated standard curve was established for the quantitative determination of the target compound in plasma, enabling the generation of plasma drug concentration-time profiles. Pharmacokinetic parameters were calculated using WinNonlin software with a non-compartmental model.

[2] = mouse, iv, i.v. (2 mg/kg), read-out: AUC0-t
[3] = mouse, po, p.o. (10 mg/kg), read-out: AUC0-t
[4] = mouse, po, p.o. (10 mg/kg), read-out: Cmax

Structure (SMILES) | Dmax (IRAK4 protein; THP-1, THP-1 cells) [%] | DC50 (IRAK4 protein; THP-1 cells) [nM] | Tmax ([1]; mouse, po, p.o. (10 mg/kg)) [h] | half-life ([1]; mouse, iv, i.v. (2 mg/kg)) [min] | Cmax [1, 4] [ng/mL] | Dmax (IRAK4 protein; THP-1 cells) [%] | other results
Cn1c(=O)n(C2CCC(=O)NC2=O)c2cccc(C#CCO[C@H]3CC[C@H](CN4CCC5(CC4)Cc4cc(NC(=O)c6cnn7cccnc67)c(N6CCC(CO)CC6)cc4O5)CC3)c21 (relative stereo) [Compound 34] | 90.6 | 2.2 | 2 |  |  |  | AUC(0-t) ([1]; i.v. (2 mg/kg)): 7155 ng·h/mL; T1/2 ([1]; i.v. (2 mg/kg)): 2.69 h; AUC(0-t) ([1]; p.o. (10 mg/kg)): 14793 ng·h/mL; Cmax ([1]; p.o. (10 mg/kg)): 1540 ng/mL; T1/2 ([1]; p.o. (10 mg/kg)): 3.70 h
Cn1c(=O)n(C2CCC(=O)NC2=O)c2cccc(C#CCO[C@H]3CC[C@@H](CN4CCC5(CC4)Cc4cc(NC(=O)c6cnn7cccnc67)c(N6CCC(CO)CC6)cc4O5)CC3)c21 (relative stereo) [Compound 55] | 89.3 | 3.44 | 1 | 180 | 1120 |  | AUC(0-t) [1, 2]: 6190 ng·h/mL; half-life ([1]; mouse, po, p.o. (10 mg/kg)): 202 min; AUC(0-t) [1, 3]: 10000 ng·h/mL
Cn1c(=O)n(C2CCC(=O)NC2=O)c2cccc(CN3CCC(CCN4CCC5(CC4)Oc4cc(NC(=O)c6cnn7cccnc67)c(N6CCC(CO)CC6)cc4O5)CC3)c21 (centres unmarked) [Compound 15] |  | 2.22 | 6 | 1330 | 1320 | 86 | AUC(0-t) [1, 2]: 14400 ng·h/mL; half-life ([1]; mouse, po, p.o. (10 mg/kg)): 1420 min; AUC(0-t) [1, 3]: 23200 ng·h/mL
Cn1c(=O)n(C2CCC(=O)NC2=O)c2cccc(C#CCO[C@H]3CC[C@H](CN4CCC5(CC4)Cc4cc(NC(=O)c6coc7cccnc67)c(N6CCC(CO)CC6)cc4O5)CC3)c21 (some centres unmarked) [Compound 35] |  | 4.69 | 2 | 227 | 2070 | 93.4 | AUC(0-t) ([1]; i.v. (2 mg/kg)): 10556 ng·h/mL; AUC(0-t) ([1]; p.o. (10 mg/kg)): 23388 ng·h/mL; T1/2 ([1]; p.o. (10 mg/kg)): 4.34 h
Cc1cnc2c(C(=O)Nc3cc4c(cc3N3CCC(CO)CC3)OC3(CCN(C[C@H]5CC[C@H](OCC#Cc6cccc7c6n(C)c(=O)n7C6CCC(=O)NC6=O)CC5)CC3)C4)cnn2c1 (some centres unmarked) [Compound 36] |  | 2.27 | 2 | 170 | 1740 | 86.5 | AUC(0-t) [1, 2]: 8730 ng·h/mL; half-life ([1]; mouse, po, p.o. (10 mg/kg)): 193 min; AUC(0-t) [1, 3]: 18000 ng·h/mL
Cn1c(=O)n(C2CCC(=O)NC2=O)c2cccc(C#CCO[C@H]3CC[C@H](CN4CCC5(CC4)Cc4cc(NC(=O)c6cnn7cc(Cl)cnc67)c(N6CCC(CO)CC6)cc4O5)CC3)c21 (some centres unmarked) [Compound 37] |  | 3.32 | 4 | 202 | 2150 | 90.5 | AUC(0-t) [1, 2]: 12100 ng·h/mL; half-life ([1]; mouse, po, p.o. (10 mg/kg)): 236 min; AUC(0-t) [1, 3]: 29300 ng·h/mL
Cn1c(=O)n(C2CCC(=O)NC2=O)c2cccc(C#CCO[C@H]3CC[C@H](CN4CCC5(CC4)Cc4cc(NC(=O)c6cnn7cc(F)cnc67)c(N6CCC(CO)CC6)cc4O5)CC3)c21 (some centres unmarked) [Compound 38] |  | 2.81 | 4 |  |  | 88.8 | AUC(0-t) ([1]; i.v. (2 mg/kg)): 11671 ng·h/mL; T1/2 ([1]; i.v. (2 mg/kg)): 4.07 h; AUC(0-t) ([1]; p.o. (10 mg/kg)): 26962 ng·h/mL; Cmax ([1]; p.o. (10 mg/kg)): 2277 ng/mL; T1/2 ([1]; p.o. (10 mg/kg)): 4.27 h
Cn1c(=O)n(C2CCC(=O)NC2=O)c2cccc(C#CCO[C@H]3CC[C@H](CN4CCC5(CC4)Cc4cc(NC(=O)c6cnn7cccnc67)c(N6CCC(C(C)(C)O)CC6)cc4O5)CC3)c21 (some centres unmarked) [Compound 41] |  | 3.86 | 2 | 128 | 2990 | 90.5 | AUC(0-t) [1, 2]: 5120 ng·h/mL; half-life ([1]; mouse, po, p.o. (10 mg/kg)): 157 min; AUC(0-t) [1, 3]: 21200 ng·h/mL
Cn1c(=O)n(C2CCC(=O)NC2=O)c2cccc(C#CCO[C@H]3CC[C@H](CN4CCC5(CC4)Cc4cc(NC(=O)c6cnc7cccnn67)c(N6CCC(CO)CC6)cc4O5)CC3)c21 (some centres unmarked) [Compound 45] |  | 1.52 | 2 | 121 |  | 87.4 | AUC(0-t) ([1]; i.v. (2 mg/kg)): 3192 ng·h/mL; AUC(0-t) ([1]; p.o. (10 mg/kg)): 7391 ng·h/mL; Cmax ([1]; p.o. (10 mg/kg)): 1190 ng/mL; T1/2 ([1]; p.o. (10 mg/kg)): 4.40 h
Cn1c(=O)n(C2CCC(=O)NC2=O)c2cccc(N3CCC(O)(CC(=O)N4CCC5(CC4)Cc4cc(NC(=O)c6cnn7cccnc67)c(N6CCC(CO)CC6)cc4O5)CC3)c21 (centres unmarked) [Example 81] | 90.2 | 1.02 |  |  |  |  | 
O=C1CCC(N2C(=O)c3ccc(N4CCC(CN5CCC6(CC5)Cc5cc(NC(=O)c7cnn8cccnc78)c(N7CCC(CO)CC7)cc5O6)CC4)cc3C2=O)C(=O)N1 (centres unmarked) [Example 82] | 85.6 | 3.44 |  |  |  |  | 
Cn1c(=O)n(C2CCC(=O)NC2=O)c2cccc(C#CCO[C@H]3CC[C@H](CN4CCC5(CC4)Cc4cc(NC(=O)c6cnn7cc(Cl)cnc67)c(N6CCC(O)CC6)cc4O5)CC3)c21 (some centres unmarked) [Example 86] |  | 2.98 |  |  |  | 86.2 | 
Cn1c(=O)n(C2CCC(=O)NC2=O)c2cccc(C#CCO[C@H]3CC[C@H](CN4CCC5(CC4)Cc4cc(NC(=O)c6cnn7cc(C#N)cnc67)c(N6CCC(CO)CC6)cc4O5)CC3)c21 (some centres unmarked) [Example 87] |  | 4.06 |  |  |  | 90 | 
Cc1cc(-c2nc(C(=O)Nc3cc4c(cc3N3CCC(O)CC3)OC3(CCN(C[C@H]5CC[C@H](OCC#Cc6cccc7c6n(C)c(=O)n7C6CCC(=O)NC6=O)CC5)CC3)C4)co2)ccn1 (some centres unmarked) [Example 88] |  | 5.4 |  |  |  | 89 | 
Cc1cc(-c2nc(C(=O)Nc3cc4c(cc3N3CCC(CO)CC3)OC3(CCN(C[C@H]5CC[C@H](OCC#Cc6cccc7c6n(C)c(=O)n7C6CCC(=O)NC6=O)CC5)CC3)C4)co2)ccn1 (some centres unmarked) [Example 89] |  | 6.02 |  |  |  | 84.6 | 
Cn1c(=O)n(C2CCC(=O)NC2=O)c2cccc(C#CCO[C@H]3CC[C@H](CN4CCC5(CC4)Cc4cc(NC(=O)c6cnn7cc(CO)cnc67)c(N6CCC(CO)CC6)cc4O5)CC3)c21 (some centres unmarked) [Example 90] |  | 2.24 |  |  |  | 87.1 | 
Cn1c(=O)n(C2CCC(=O)NC2=O)c2cccc(N3CCC(CCN4CCC5(CC4)Cc4cc(NC(=O)c6cnn7cccnc67)c(N6CCC(CO)CC6)cc4O5)CC3)c21 (centres unmarked) [Example 96] | 92 | 1.65 |  |  |  |  | 
O=C1CCC(N2C(=O)c3cc(F)c(N4CCC(CN5CCC6(CC5)Cc5cc(NC(=O)c7cnn8cccnc78)c(N7CCC(CO)CC7)cc5O6)CC4)cc3C2=O)C(=O)N1 (centres unmarked) [Example 97] | 87.9 | 7.85 |  |  |  |  | 
Cn1c(=O)n(C2CCC(=O)NC2=O)c2cccc(C3CCC(CN4CCC5(CC4)Cc4cc(NC(=O)c6cnn7cccnc67)c(N6CCC(CO)CC6)cc4O5)CC3)c21 (centres unmarked) [Example 98] | 88.6 | 1.1 |  |  |  |  | 
